The structures appear in SMILES notation.

Series [1] deals with CEM-SS cells. As to the kind of experiment: CEM-SS cell growth, 3H-Tdr pulse label DNA synthesis (Example 23). The class given is cell-based. To be noted: Homo sapiens, 48 hours at 37° C., then 3H-Tdr 8 hours.
Series [2] has as its system HIV-1. As to the kind of experiment: HIV-1 plaque formation in CEM-SS cells (Example 23). As to conditions: for IC50: read-out: IC50 HIV-1 Plaque Formation; for D.S. (Differential selectivity): average IC50 for CEMSS cell growth / average IC50 for HIV1 plaque formation. The format is cell-based. As to the method:
Anti-HIV1 Activity of Lipid-Nucleoside Conjugates. CEM-SS cells were seeded (50,000 cells/ml RPMI-1640 growth medium) as a monolayer in 96-well dishes, innoculated with 50 to 100 plaque forming units of HIV-1 and overlaid with serial dilutions of lipid-nucleoside conjugate in RPHI-1640 growth medium. Plaques were counted after five days incubation at 37° C. to determine the 50% inhibitory concentration.

For series [3], the system named is HIV-1. The experiment in a line: HIV-1 induced p24 core antigen synthesis in persistently infected monocyte/macrophage (U1) cells. The class given is cell-based. To be noted: control 94 = 100. An excerpt: (§1) See C. Perno et al., J. Exp. Med. 168, 1111 (1984).
In series [4] the test system is HIV-1. As to the kind of experiment: HIV-1 induced RT in persistently infected monocyte/macrophage (U1) cells. As to conditions: control 79,328 DPM = 100. The format is cell-based.
Excerpt: as §1

The test system of series [5] is HIV-1. As to the kind of experiment: Infectious HIV-1 production (PFU) in persistently infected monocyte/macrophage (U1) cells. The format is cell-based.
Excerpt: as §1

A short description of series [6]: in vitro. As to conditions: human, cem-ss cells.
Series [7] concerns HIV-1. As to the kind of experiment: Plaque assay: inhibition of HIV-1 syncytial plaque formation in CEM-SS cells (Example 15). The format is cell-based, human immunodeficiency virus type 1 (HIV-1). To be noted: for IC50: Human immunodeficiency virus 1, CEM-SS, 120 h, read-out: Inhibitory Concentration50 for HIV-1 Plaque Formation; for Differential Selectivity: ratio IC50 for cytotoxicity / IC50 for HIV1 plaque formation. An excerpt:
Anti-HIV1 Activity of Lipid-Nucleoside Conjugates. […] In brief, CEM-SS cell monolayers were infected with HIV-1. […] Plaques were counted at five days after infection. In this assay HIV-1 syncytial plaques are seen as large, multicellular foci (10 to 25 nuclei/syncytium) that appear either brown and granular or clear. Silnce the number of HIV-1 syncytial plaques correlates with reverse transcriptase (RT) and p24 core antigen activity in the HIV-1 infected cell overlay fluids, the syncytial plaque assay can be used to quantify the amount of infectious virus. […] The activity of p24 core antigen induced by HIV-1 infection of CEM-SS cells was measured spectrophotometrically using the commercial Coulter EIA.

For series [8], the system named is CEM-SS cells. The experiment in a line: Cell cytotoxicity (Example 15, Table 1). As to conditions: conjugate IC50 53.8 μM vs AZT IC50 5.6 μM.
[9] abbreviates: Human immunodeficiency virus 1, 120 h, CEM-SS cells, five days incubation at 37° C.

For `CCCCCCCCCCCCCCCCOCC(COP(=O)(O)OP(=O)(O)OCC1OC(n2cc(C)c(=O)[nH]c2=O)CC1N=[N+]=[N-])OCC` [A, 3'-Azido-3'-deoxythymidine-5'-diphosphate-D,L-3-hexadecyloxy-2-ethoxypropane], the IC50 in series [1] is over 100000 nM.

One may read the CC50 as the concentration giving 50% cytotoxicity. For `Cc1cn([C@H]2C[C@H](N=[N+]=[N-])[C@@H](CO)O2)c(=O)[nH]c1=O` [AZT, 3'-azido-3'-deoxythymidine], the IC50 in series [2] (Human immunodeficiency virus 1, CEM-SS, 120 h) worked out at 4 nM; in series [7], 4 ± 1 nM. The “p24 core Ag, Percent of Control” value in series [3] was 101% of Control. Further, in series [4], the “RT DPM, Percent of Control” value was 90% of Control. Moreover, the “inhibition of infectious HIV-1 production” value in series [5] came out at 13%. Moreover, the “PFU, Percent of Control” value in series [5] (control 750 PFU = 100) is 87% of Control. Further, the CC50 in series [6] turned out to be 5600 nM.

The molecule `CCCCCCCCCCCCCCCCCC(=O)NCC(COP(=O)(O)OC[C@H]1O[C@@H](n2cc(C)c(=O)[nH]c2=O)C[C@@H]1N=[N+]=[N-])OCC` (some centres unmarked) [A] showed a half-maximal cytotoxic concentration (CC50) in series [6] of 53800 ± 7800 nM. For the same molecule, the IC50 in series [7] amounted to 30 ± 20 nM.

In the case of `CCCCCCCCCCCCCCCCCC(=O)NCC(COP(=O)([O-])OC(CC(=O)OC[C@H]1O[C@@H](n2cc(C)c(=O)[nH]c2=O)C[C@@H]1N=[N+]=[N-])C[N+](C)(C)C)OCC` (stereo partly drawn) [BB, 3'-Azido-3-deoxythymidine-5'-butyrate-γ-N,N,N-trimethyl-ammonium-β-(1-phospho-2-ethoxy-3octadecanamidopropane)], the IC50 in series [2] (setting [9]) came out at 40 nM. Besides, in series [2], the “D.S. (Differential selectivity)” value was 342.

As for `CCCCCCCCCCCCCCCCCC(=O)NCC(COP(=O)(O)OC[C@H]1O[C@@H](n2cc(C)c(=O)[nH]c2=O)C[C@@H]1N=[N+]=[N-])OCC` (stereo partly drawn) [Compound A, 3,-azido-3'-deoxythymidine-5'-monophosphate-D,L-3-octadecanamido-2-ethoxypropane], the “decrease in cell cytotoxicity compared to AZT” value in series [8] is listed as “about ten-fold”.

Turning to `CCCCCCCCCCCCCCCCOCC(COP(=O)([O-])OC(CC(=O)OC[C@H]1O[C@@H](n2cc(C)c(=O)[nH]c2=O)C[C@@H]1N=[N+]=[N-])C[N+](C)(C)C)OCC` (stereo partly drawn) [Compound AA, 3'-Azido-3'-deoxythymidine-5'-butyrate-γ-N,N,N-trimethyl-ammonium-β-(1-phospho-2-ethoxy-3-hexadecyloxypropane)], the IC50 in series [2] (setting [9]) is 4 nM. Moreover, the “D.S. (Differential selectivity)” value in series [2] was 3375.

Regarding `CCCCCCCCCCCCCCCCOCC(COP(=O)(O)OC[C@H]1O[C@@H](n2cc(C)c(=O)[nH]c2=O)C[C@@H]1N=[N+]=[N-])OCC` (stereo partly drawn) [Compound B, 3'-azido-3'deoxythymidine-5'-monophosphate-D,L-3-hexadecyloxy-2-ethoxypropane], half-maximal cytotoxicity in series [6] (CC50) was put at 35000 ± 2100 nM. In series [7], the IC50 is 30 ± 20 nM and the “Differential Selectivity” value is 1167.

Consider `CCCCCCCCCCCCCCCCSCC(COP(=O)(O)OC[C@H]1O[C@@H](n2cc(C)c(=O)[nH]c2=O)C[C@@H]1N=[N+]=[N-])OC` (stereo partly drawn) [Compound C, 3'azido-3'-deoxythymidine-5'-monophosphate-D,L-3-hexadecylthio-2-methoxypropane], for which it took 29200 ± 5700 nM to reach half-maximal cytotoxicity in series [6] (CC50). In series [7], the IC50 is 20 ± 10 nM and the “Differential Selectivity” value was 1465.

The molecule `CCCCCCCCCCCCCCCCCC(=O)NCC(COP(=O)(O)OC[C@@H]1CC[C@H](n2cnc3c(=O)[nH]cnc32)O1)OCC` (stereo partly drawn) [Compound D, 2,3,-dideoxyinosine-5'-monophosphate-D,L-3-octadecanamido-2-ethoxypropane] yielded a CC50 in series [6] of over 100000 nM. In series [7], the IC50 turned out to be 1560 ± 800 nM and the “Differential Selectivity” value is on record as over 64.

`CCCCCCCCCCCCCCCCOCC(CP(=O)(O)OC[C@H]1O[C@@H](n2cc(C)c(=O)[nH]c2=O)C[C@@H]1N=[N+]=[N-])OC` (stereo partly drawn) [Compound E, 3'-Azido-3'-deoxythymidine-5'-phosphono-D,L-3-hexadecyloxy-2-methoxypropane] returned a CC50 in series [6] of 25200 ± 1100 nM. Also, in series [7], the IC50 is 20 ± 10 nM and the “Differential Selectivity” value stood at 1260.

As for `CCCCCCCCCCCCCCCCCC(=O)NCC(COP(=O)(O)OP(=O)(O)OC[C@H]1O[C@@H](n2cc(C)c(=O)[nH]c2=O)C[C@@H]1N=[N+]=[N-])OCC` (stereo partly drawn) [Compound H, 3'-Azido-3-deoxythymidine-5'-diphosphate-D,L-3-octadecanamido-2-ethoxypropane], the IC50 in series [2] (setting [9]) was determined as 11 nM; in series [1] it was 6600 nM. For the same molecule, in series [2], the “D.S. (Differential selectivity)” value is 600.

In turn, `O=c1[nH]cnc2c1ncn2[C@H]1CC[C@@H](CO)O1` [DDI, dideoxyinosine, reference compound] had a CC50 in series [6] of over 100000 nM. In series [7], the IC50 worked out at 1700 nM.

Values taken from patent US5512671A, “Ether lipid-nucleoside covalent conjugates” (Wake Forest University, priority 1995, dated 1996).
